Experimental data from publication PMC11486130, “Structure-guided discovery of novel dUTPase inhibitors with anti-Nocardia activity by computational design” (Journal of Enzyme Inhibition and Medicinal Chemistry, 2024).
Values after ≈ are worked out from the molar mass of the structure shown. Like-named read-outs stand apart in the source and are kept apart here.

How the values were obtained:
[1] = target: NsdUTPase (Nocardia seriolae, UniProt A0ABF7PKI9); experiment: NsdUTPase activity assay (PPi Light inorganic pyrophosphate assay kit); format: biochemical; settings: for activity improvement: NsdUTPase IC50 compared with F0414
Description: The in vitro catalytic activity of NsdUTPase was detected by a PPi Light inorganic pyrophosphate assay kit following manufactory’s manual. […] After 120 min of incubation at room temperature, the luminescence intensity of the reaction was measured by a microplate luminometer at 560 nm.
IC50 was determined using GraphPad Prism software 9 (GraphPad Software, San Diego, CA). All experiments were performed in triplicate, and values (±standard deviations [SD]) are shown. Significant differences were determined using Student’s t-test. *p < 0.05 (considered significant compared with control group); **p < 0.01 (considered highly significant); ***p < 0.001 (considered extremely significant).

[2] = tested on: N. salmonicida strain JCM4826; experiment: anti-Nocardia activity, microplate alamar blue assay (MABA); format: cell-based; settings: two days at 25 °C; for MIC: 48 h
Description: (§1) The MABA method was used to determine the anti-Nocardia activity of compounds according to reported method[34] with modification. N. seriolae strain JCM3360, and N. salmonicida strain JCM4826 were gifted from Prof. Nien, Chung-Yi (National Central University, Taoyuan City, Taiwan), and cultured in M-196 medium (0.4% yeast extract; 1% malt extract; 0.4% dextrose) at 25 °C. Two strains were inoculated into 96-well plates at a concentration of ×10^6 CFU/mL and cultured in the medium, then different concentrations of compounds were added. After two days of incubation at 25 °C, the mixture of 20 μL 10× alamar blue and 50 μL 5% Tween-80 were added to observe the colour change. Minimum inhibitory concentration (MIC) is defined as the minimum compound concentration of the well varying from blue to pink.

[3] = tested on: N. seriolae strain JCM3360; experiment: as above; format: cell-based; settings: two days at 25 °C; for MIC: 48 h
Description: as §1

[4] = Cytotoxicity, CCK-8 assay; format: cell-based; settings: concentration 30 µM (about 10.0 mg/L), read-out: cell viability
Description: The cytotoxicity of compounds 4b and 12b was determined by CCK-8 assay. A549 and Marc cells were cultured for the test. Concentrations of compounds varied from 0.03 to 30 µM. Meanwhile, 1% DMSO was used as a negative control. After incubation for 24 h, WST-8 was added. The experimental method referred to the kit instructions. All the experiments were repeated three times.

[5] = target: T1, NsdUTPase WT (Nocardia seriolae, UniProt A0ABF7PKI9); experiment: Kd to WT NsdUTPase; format: binding, N. seriolae
T1 sequence (A0ABF7PKI9 1-166): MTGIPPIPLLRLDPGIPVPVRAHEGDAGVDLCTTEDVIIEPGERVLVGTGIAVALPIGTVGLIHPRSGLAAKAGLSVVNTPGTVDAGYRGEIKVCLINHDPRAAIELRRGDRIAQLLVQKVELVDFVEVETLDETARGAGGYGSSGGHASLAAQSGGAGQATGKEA

[6] = in vitro enzyme inhibitory activity, read-out: IC50 against NsdUTPase
[7] = African green monkey, Marc cells

| Compound | IC50 [1, 6] [µM] | MIC [2] [µg/mL] | MIC [3] [µg/mL] | also measured |
| --- | --- | --- | --- | --- |
| 1-(Cyclopropylmethyl)-2-(4-phenoxyphenyl)-5-(trifluoromethyl)-1H-benzo[d]imidazole [12f] | > 20 | – | – | MIC N. salmonicida [2]: 8 mg/L; MIC N. seriolae [3]: 16 mg/L |
| 1-Allyl-6-fluoro-5-methyl-2-(6-phenoxypyridin-3-yl)-1H-benzo[d]imidazole [12i] | 7.84 | – | – | MIC N. salmonicida [2]: 4 mg/L; MIC N. seriolae [3]: 4 mg/L |
| C=CCn1c(/C=C/c2ccccc2)nc2cc(C(F)(F)F)ccc21 [4b, (E)-1-Allyl-2-styryl-5-(trifluoromethyl)-1H-benzo[d]imidazole] | – | 0.5 (≈ 1.52 µM) | 1 (≈ 3.05 µM) | IC50 [1]: 0.99 µM; activity improvement [1]: more than 20 fold; viability at 24 h, 30 µM [4, 7]: > 70%; viability at 24 h, 30 µM ([4]; human, A549 cells): > 70%; Kd [5]: 10.3 µM |
| C=CCn1c(/C=C/c2ccccc2)nc2c(C)cccc21 [4d, (E)-1-Allyl-4-methyl-2-styryl-1H-benzo[d]imidazole] | > 20 | 16 (≈ 58.3 µM) | 16 (≈ 58.3 µM) | – |
| C=CCn1c(/C=C/c2ccccc2)nc2cc(C#N)ccc21 [4e, (E)-1-Allyl-2-styryl-1H-benzo[d]imidazole-5-carbonitrile] | > 20 | 16 (≈ 56.1 µM) | > 50 | – |
| C=CCn1c(/C=C/c2ccc(N(C)C)cc2)nc2ccccc21 [4g, (E)-4-(2-(1-Allyl-1H-benzo[d]imidazol-2-yl)vinyl)-N,N-dimethylaniline] | 2.98 | 16 (≈ 52.7 µM) | > 50 | – |
| C=CCn1c(/C=C/c2ccccc2)nc2cc(C(=O)c3ccccc3)ccc21 [4h, (E)-(1-Allyl-2-styryl-1H-benzo[d]imidazol-5-yl)(phenyl)methanone] | 9.62 | 8 (≈ 22 µM) | 8 (≈ 22 µM) | – |
| C=CCn1c(/C=C/c2ccccc2OC)nc2cc(C(=O)c3ccccc3)ccc21 [4i, (E)-(1-Allyl-2-(2-methoxystyryl)-1H-benzo[d]imidazol-5-yl)(phenyl)methanone] | 7.54 | 4 (≈ 10.1 µM) | 8 (≈ 20.3 µM) | – |
| C=CCn1c(-c2ccc(Oc3ccccc3)cc2)nc2ccccc21 [8a, 1-Allyl-2-(4-phenoxyphenyl)-1H-benzo[d]imidazole] | 2.61 | 4 (≈ 12.3 µM) | 4 (≈ 12.3 µM) | – |
| C=CCn1c(-c2ccc(-c3ccccc3)cc2)nc2ccccc21 [8b, 2-([1,1′-Biphenyl]-4-yl)-1-allyl-1H-benzo[d]imidazole] | – | 4 (≈ 12.9 µM) | 4 (≈ 12.9 µM) | – |
| C=CCn1c(/C(C)=C/c2ccccc2)nc2ccccc21 [8c, (E)-1-Allyl-2-(1-phenylprop-1-en-2-yl)-1H-benzo[d]imidazole] | > 20 | 4 (≈ 14.6 µM) | 8 (≈ 29.2 µM) | – |
| C=CCn1c(-c2cccc(Oc3ccccc3)c2)nc2ccccc21 [8d, 1-Allyl-2-(3-phenoxyphenyl)-1H-benzo[d]imidazole] | 15.7 | 32 (≈ 98 µM) | > 50 | – |
| C=CCn1c(-c2ccc3ccccc3c2)nc2ccccc21 [8e, 1-Allyl-2-(naphthalen-2-yl)-1H-benzo[d]imidazole] | 10.5 | 4 (≈ 14.1 µM) | 4 (≈ 14.1 µM) | – |
| C=CCn1c(-c2ccc(Oc3ccccc3)cc2)nc2cc(C(F)(F)F)ccc21 [12a, 1-Allyl-2-(4-phenoxyphenyl)-5-(trifluoromethyl)-1H-benzo[d]imidazole] | 8.36 | 16 (≈ 40.6 µM) | > 50 | – |
| C=CCn1c(-c2ccc(Oc3ccccc3)cc2)nc2cc(C)ccc21 [12b, 1-Allyl-5-methyl-2-(4-phenoxyphenyl)-1H-benzo[d]imidazole] | – | 1 (≈ 2.94 µM) | 2 (≈ 5.87 µM) | IC50 [1]: 0.7 µM; activity improvement [1]: more than 20 fold; viability at 24 h, 30 µM [4, 7]: > 70%; viability at 24 h, 30 µM ([4]; human, A549 cells): > 70%; Kd [5]: 7.49 µM |
| C=CCn1c(-c2ccc(Oc3ccccc3)cc2)nc2cc(C(=O)c3ccccc3)ccc21 [12c, (1-Allyl-2-(4-phenoxyphenyl)-1H-benzo[d]imidazol-5-yl)(phenyl)methanone] | 15.4 | 8 (≈ 18.6 µM) | 16 (≈ 37.2 µM) | – |
| C=CCn1c(-c2ccc(Oc3ccccc3)cc2)nc2cc(C)c(C)cc21 [12d, 1-Allyl-5,6-dimethyl-2-(4-phenoxyphenyl)-1H-benzo[d]imidazole] | 3.71 | 4 (≈ 11.3 µM) | 8 (≈ 22.6 µM) | – |
| C#CCn1c(-c2ccc(Oc3ccccc3)cc2)nc2cc(C(F)(F)F)ccc21 [12e, 2-(4-Phenoxyphenyl)-1-(prop-2-yn-1-yl)-5-(trifluoromethyl)-1H-benzo[d]imidazole] | 14.8 | 16 (≈ 40.8 µM) | 32 (≈ 81.6 µM) | – |
| C=CCn1c(-c2ccc(Oc3cccnc3)cc2)nc2cc(C(F)(F)F)ccc21 [12g, 1-Allyl-2-(4-(pyridin-3-yloxy)phenyl)-5-(trifluoromethyl)-1H-benzo[d]imidazole] | > 20 | 32 (≈ 80.9 µM) | > 50 | – |
| C=CCn1c(-c2ccc(Oc3ccccc3)nc2)nc2cc(C(F)(F)F)ccc21 [12h, 1-Allyl-2-(6-phenoxypyridin-3-yl)-5-(trifluoromethyl)-1H-benzo[d]imidazole] | > 20 | 32 (≈ 80.9 µM) | > 50 | – |
| C=CCn1c(/C=C/c2ccccc2)nc2ccccc21 [F0414, (E)-1-Allyl-2-styryl-1H-benzo[d]imidazole, reference compound] | > 20 | 2 (≈ 7.68 µM) | 8 (≈ 30.7 µM) | – |
| CS(=O)(=O)c1ccc([C@@H](O)[C@@H](CF)NC(=O)C(Cl)Cl)cc1 [Florfenicol, reference compound] | – | 16 (≈ 44.7 µM) | 4 (≈ 11.2 µM) | – |
| CN(C)[C@@H]1C(O)=C(C(N)=O)C(=O)[C@@]2(O)C(O)=C3C(=O)c4c(O)cccc4[C@@](C)(O)[C@H]3[C@H](O)[C@@H]12 [Oxytetracycline, reference compound] | – | 4 (≈ 8.69 µM) | 1 (≈ 2.17 µM) | – |
| COc1cc(NS(=O)(=O)c2ccc(N)cc2)nc(OC)n1 [Sulfadimethoxine, reference compound] | – | 12.5 (≈ 40.3 µM) | > 50 | MIC N. seriolae [3]: >50 mg/L |
| Cc1ccnc(NS(=O)(=O)c2ccc(N)cc2)n1 [Sulfamerazin, reference compound] | – | – | – | MIC N. salmonicida [2]: >50 mg/L; MIC N. seriolae [3]: >50 mg/L; MIC N. seriolae ([3]; listed as sulfamerazin): > 50 mg/L |
| (E)-1-Allyl-2-styryl-1H-benzo[d]imidazol-5-yl acetate [4f] | 18.3 | – | – | MIC N. salmonicida [2]: 32 mg/L; MIC N. seriolae [3]: >50 mg/L |
| (E)-1-Allyl-2-styryl-1H-benzo[d]imidazole [4a] | 2.65 | – | – | MIC N. salmonicida [2]: 2 mg/L; MIC N. seriolae [3]: 4 mg/L |
| (E)-1-Allyl-2-styryl-1H-benzo[d]imidazole [4c] | 3.78 | – | – | MIC N. salmonicida [2]: 16 mg/L; MIC N. seriolae [3]: >50 mg/L |
